Assay results reported in patent US7384788B2, “Regulator/promoter for tunable gene expression and metabolite sensing” (priority 2003, dated 2008).
Where two headings read alike, the source gives them in different places.

Key:
[1] = tested on: yhcRQP-luxCDABE gene fusion; test: LuxArray bioluminescent response, strain DPD2411 (tolC- host); assay type: cell-based, E. coli; settings: for Replica 1 normalized RLU / Replica 2 normalized RLU: LB medium; for bioluminescent response of the yhcRQP-luxCDABE gene fusion (in words): time points other than the zero time point
[2] = tested on: lysU-luxCDABE gene fusion; settings: for RLU at 100 minutes: lysU-luxCDABE, pH 7.0
Text: (§1) Three E. coli strains, each in the same host strain but carrying different, plasmid-borne, promoter-luxCDABE fusions were used. Strain DPD2411 contains a yhcRQP-luxCDABE gene fusion as described in Example 2. Strain DPD2084 contains a yciG-luxCDABE gene fusion that has been previously described. Strain DPD3282 contains a lysU-luxCDABE gene fusion that was part of the LuxA collection of gene fusions, described in Example 2. The plasmid in this strain, pDEW558, contains an E. coli chromosomal segment between nucleotides 4350990 and 4353107 according to the E. coli genomic sequence; the orientation of the chromosomal segment is such that the lysU promoter region controls expression of luxCDABE. Each of these three strains was grown overnight in Vogel-Bonner minimal medium with 0.4% glucose as the carbon source and supplemented with L-proline, L-lysine, uracil and 25 μg/ml Ampicillin. The overnight cultures were diluted into the same medium except lacking Ampicillin and incubated at 37° C. until in mid-exponential growth. Aliquots (50 μl) of these actively growing cultures were added to 50 μl of the same medium at pH 7.0 without Ampicillin but containing various concentrations of sodium acetate or sodium salicylate in the wells of a 96 well, white microplate (Microlite, Dynex Technologies). Immediately after adding the cell culture, the bioluminescence was quantitated in a microplate luminometer in the kinetic mode.

[3] = tested on: yciG-luxCDABE gene fusion; settings: for RLU at 100 minutes: yciG-luxCDABE, pH 7.0
Text: as §1

[4] = tested on: yhcRQP-luxCDABE gene fusion; settings: for RLU at 100 minutes: yhcRQP-luxCDABE, pH 7.0
Text: as §1

[5] = tested on: yhcRQP-luxCDABE gene fusion; test: Bioluminescence activation test in strain DPD2411, LB medium pH 7.0; assay type: cell-based, E. coli; settings: Experiment code A; for Concentration of maximum response: strain DPD2411, LB pH 7.0; for treated RLU: strain DPD2411, at concentration of maximum response; for Ratio: strain DPD2411, treated RLU/control RLU
Text: (§2) A derivative of E. coli strain MG1655 (obtained from Prof. Douglas Berg, Washington University School of Medicine, St. Louis, […].) with the yhcS::TN<Kan> mutation was made by P1clr100Cm mediated transduction using phage grown on strain DPD2410 as a donor and selection for kanamycin resistance. The presence of the yhcS::TN<Kan> mutation in one of the resultant transductants, named DPD2433, was confirmed by PCR amplification. Plasmid pDEW655 was moved to E. coli strains MG1655 and DPD2433 by transformation, selecting for Ampicillin resistance to generate strains DPD2436 and DPD2437, respectively. The bioluminescent response of these two strains to pHBA was tested. Aliquots (50 μl) of actively growing cultures at 37° C. in LB medium that had been previously diluted, and from overnight cultures in LB medium with 150 μg/ml Ampicillin were added to 50 μl of LB medium at pH 7.0 containing pHBA as the sodium salt form. Several concentrations of pHBA were tested.
Further characterization of the signals that trigger activation of YhcS, was done using the yhcRQP-luxCDABE gene fusion containing E. coli strains DPD2411 or DPD2436. […] Several weak, aromatic acid molecules in addition to those shown in the Examples above activated expression.

[6] = tested on: yhcRQP-luxCDABE gene fusion; test: Bioluminescence response in yhcS+ strain DPD2436 (MG1655 host); assay type: cell-based, E. coli; settings: for Concentration of maximum response: strain DPD2436, LB pH 7.0; for treated RLU: strain DPD2436, at concentration of maximum response; for Ratio: strain DPD2436, treated RLU/control RLU
Text: as §2, with “The presence of the yhcS::TN<Kan> mutation in one of the resultant transductants, named DPD2433, was confirmed by PCR amplification.” left out
Further characterization of the signals that trigger activation of YhcS, was done using the yhcRQP-luxCDABE gene fusion containing E. coli strains DPD2411 or DPD2436.

[7] = concentrations tested, 100 minutes

SMILES: CCO [ethanol]
- Replica 1 normalized RLU ([1]; 3% ethanol, 0 min): 0.024 RLU
- Replica 2 normalized RLU ([1]; 3% ethanol, 0 min): 0.038 RLU
- Replica 1 normalized RLU ([1]; 3% ethanol, 45 min): 0.024 RLU
- Replica 2 normalized RLU ([1]; 3% ethanol, 45 min): 0.029 RLU
- Replica 1 normalized RLU ([1]; 3% ethanol, 90 min): 0.022 RLU
- Replica 2 normalized RLU ([1]; 3% ethanol, 90 min): 0.026 RLU
- Replica 1 normalized RLU ([1]; 3% ethanol, 135 min): 0.012 RLU
- Replica 2 normalized RLU ([1]; 3% ethanol, 135 min): 0.014 RLU
- Replica 1 normalized RLU ([1]; 5% ethanol, 0 min): 0.022 RLU
- Replica 2 normalized RLU ([1]; 5% ethanol, 0 min): 0.037 RLU
- Replica 1 normalized RLU ([1]; 5% ethanol, 45 min): 0.014 RLU
- Replica 2 normalized RLU ([1]; 5% ethanol, 45 min): 0.017 RLU
- Replica 1 normalized RLU ([1]; 5% ethanol, 90 min): 0.022 RLU
- Replica 2 normalized RLU ([1]; 5% ethanol, 90 min): 0.017 RLU
- Replica 1 normalized RLU ([1]; 5% ethanol, 135 min): 0.015 RLU
- Replica 2 normalized RLU ([1]; 5% ethanol, 135 min): 0.014 RLU
- bioluminescent response of the yhcRQP-luxCDABE gene fusion (in words) [1]: does not induce increased bioluminescence

SMILES: CC(=O)[O-].[Na+] [acetate, sodium acetate]
- activation of acid responsive lysU-luxCDABE gene fusion (in words) [2, 7]: did activate
- RLU at 100 minutes ([2]; 80 mM acetate): 1.4 RLU
- RLU at 100 minutes ([2]; 160 mM acetate): 6.0 RLU
- activation of acid responsive yciG-luxCDABE gene fusion (in words) [3, 7]: did activate
- RLU at 100 minutes ([3]; 80 mM acetate): 0.35 RLU
- RLU at 100 minutes ([3]; 160 mM acetate): 0.80 RLU
- activation of expression of yhcRQP-luxCDABE (in words) [4, 7]: did not activate expression
- RLU at 100 minutes ([4]; 80 mM acetate): 0.14 RLU
- RLU at 100 minutes ([4]; 160 mM acetate): 0.08 RLU

SMILES: O=C(O)C=Cc1ccccc1 [CA, cinnamic acid]
- Replica 1 normalized RLU ([1]; 4 mM CA, 0 min): 0.026 RLU
- Replica 2 normalized RLU ([1]; 4 mM CA, 0 min): 0.062 RLU
- Replica 1 normalized RLU ([1]; 4 mM CA, 45 min): 4.092 RLU
- Replica 2 normalized RLU ([1]; 4 mM CA, 45 min): 2.928 RLU
- Replica 1 normalized RLU ([1]; 4 mM CA, 90 min): 5.845 RLU
- Replica 2 normalized RLU ([1]; 4 mM CA, 90 min): 4.951 RLU
- Replica 1 normalized RLU ([1]; 4 mM CA, 135 min): 5.394 RLU
- Replica 2 normalized RLU ([1]; 4 mM CA, 135 min): 3.678 RLU
- Replica 1 normalized RLU ([1]; 8 mM CA, 0 min): 0.022 RLU
- Replica 2 normalized RLU ([1]; 8 mM CA, 0 min): 0.054 RLU
- Replica 1 normalized RLU ([1]; 8 mM CA, 45 min): 4.937 RLU
- Replica 2 normalized RLU ([1]; 8 mM CA, 45 min): 3.405 RLU
- Replica 1 normalized RLU ([1]; 8 mM CA, 90 min): 8.379 RLU
- Replica 2 normalized RLU ([1]; 8 mM CA, 90 min): 6.193 RLU
- Replica 1 normalized RLU ([1]; 8 mM CA, 135 min): 6.981 RLU
- Replica 2 normalized RLU ([1]; 8 mM CA, 135 min): 5.746 RLU
- upregulation of gene fusion lux-a.pk035.c7 in LuxArray profile ([1]; pHCA 10 mM and 5 mM, CA 8 mM and 4 mM): several hundred-fold upregulated
- bioluminescent response of the yhcRQP-luxCDABE gene fusion (in words) [1]: dramatic upregulation

SMILES: O=C(O)c1cccc2ccccc12 [1-napthoate]
- Concentration of maximum response [5]: 2.5 mM
- treated RLU [5]: 29.662 RLU
- Ratio [5]: 132

SMILES: O=C([O-])c1ccc(O)cc1.[Na+] [Sodium pHBA]
- Concentration of maximum response ([6]; Experiment code C): 50 mM
- treated RLU ([6]; Experiment code C): 91.658 RLU
- Ratio ([6]; Experiment code C): 145
- Concentration of maximum response ([6]; Experiment code D): 50 mM
- treated RLU ([6]; Experiment code D): 48.643 RLU
- Ratio ([6]; Experiment code D): 248
- Concentration of maximum response [5]: 25 mM
- treated RLU [5]: 69.678 RLU
- Ratio [5]: 302
